For one data set, the system named is B. subtilis ATCC6633. Nature of the data set: MIC assay. The following applies: two-fold serial dilutions in liquid media, n = 2–3. Format: cell-based, Bacillus subtilis.
The subject of the next data set is S. aureus ATCC6538P. Nature of the data set: MIC assay. The data set is classed as cell-based, Staphylococcus aureus. The following applies: two-fold serial dilutions in liquid media, n = 2–3.
The next data set has as its system E. coli ATCC8739. Nature of the data set: MIC assay. The note with it: two-fold serial dilutions in liquid media, n = 2–3. The data set is classed as cell-based, Escherichia coli.
The subject of a further data set is P. aeruginosa ATCC9027. The data set can be described thus: MIC assay. The data set is classed as cell-based, Pseudomonas aeruginosa. The following applies: two-fold serial dilutions in liquid media, n = 2–3.
The next data set concerns M. smegmatis ATCC700084. The data set can be described thus: MIC assay (REMA). Format: cell-based, Mycobacterium smegmatis. The following applies: n = 2–3.
In another data set the test system is C. albicans DSM10697. Nature of the data set: MIC assay. Format: cell-based, Candida albicans. The note with it: two-fold serial dilutions in liquid media, n = 2–3.
Where [1] appears, read: Staphylococcus aureus, ATCC6538P.
Setting [2] is: Pseudomonas aeruginosa, ATCC9027.
The mark [3] stands for this setting: Mycolicibacterium smegmatis, ATCC700084, REMA microdilution.

The values below come from paper PMC11047580, “Design and Synthesis of Novel Amino and Acetamidoaurones with Antimicrobial Activities” (Antibiotics, 2024).

Converted amounts (≈) assume the structure as drawn.

Consider `COc1ccc(/C=C2\Oc3ccc(NC(C)=O)cc3C2=O)cc1` [Compound 6, (Z)-N-(2-(4-methoxybenzylidene)-3-oxo-2,3-dihydrobenzofuran-5-yl)acetamide], for which the melting point amounted to 252 °C. In the data set with B. subtilis ATCC6633 (Bacillus subtilis, ATCC6633), this compound registered a minimum inhibitory concentration (MIC) of more than 100 µM. For the same compound, the MIC with S. aureus ATCC6538P (setting [1]) was more than 100 µM. Besides, the MIC in the data set on E. coli ATCC8739 (Escherichia coli, ATCC8739) is more than 100 µM. Further, the MIC against P. aeruginosa ATCC9027 (setting [2]) was more than 100 µM. This compound also gave an MIC against M. smegmatis ATCC700084 (setting [3]) of more than 100 µM. The MIC in the data set on C. albicans DSM10697 (Candida albicans, DSM10697) is more than 100 µM.

For the compound `Nc1ccc2c(c1)C(=O)/C(=C/c1ccc(OCc3ccccc3)cc1)O2` [Compound 13, (Z)-5-amino-2-(4-(benzyloxy)benzylidene)benzofuran-3(2H)-one], the melting point was determined as 141.6 °C. In the data set on B. subtilis ATCC6633 (Bacillus subtilis, ATCC6633), this compound gave an MIC of 100 µM (≈ 34.3 µg/mL). Moreover, in the data set with S. aureus ATCC6538P (setting [1]), the MIC is more than 100 µM. In the data set with E. coli ATCC8739 (Escherichia coli, ATCC8739), this compound gave a minimum inhibitory concentration (MIC) of more than 100 µM. This compound showed an MIC in the data set with P. aeruginosa ATCC9027 (setting [2]) of more than 100 µM. For the same compound, in the data set on M. smegmatis ATCC700084 (setting [3]), the MIC was more than 100 µM. Also, in the data set on C. albicans DSM10697 (Candida albicans, DSM10697), the MIC is more than 100 µM.

`CC(=O)Nc1ccc2c(c1)C(=O)/C(=C/c1ccccc1F)O2` [Compound 24, (Z)-N-(2-(2-fluorobenzylidene)-3-oxo-2,3-dihydrobenzofuran-5-yl)acetamide] gave a melting point of 226 °C. Further, in the data set on B. subtilis ATCC6633 (Bacillus subtilis, ATCC6633), the MIC is more than 100 µM. This compound also gave an MIC in the data set with S. aureus ATCC6538P (setting [1]) of more than 100 µM. Further, the MIC against E. coli ATCC8739 (Escherichia coli, ATCC8739) is more than 100 µM. In the data set on P. aeruginosa ATCC9027 (setting [2]), this compound showed an MIC of more than 100 µM. In the data set with M. smegmatis ATCC700084 (setting [3]), this compound came in with an MIC of more than 100 µM. The same compound gave an MIC in the data set on C. albicans DSM10697 (Candida albicans, DSM10697) of more than 100 µM.

The compound `Nc1ccc2c(c1)C(=O)/C(=C/c1cccc(C(F)(F)F)c1)O2` [Compound 30, (Z)-5-amino-2-(3-(trifluoromethyl)benzylidene)benzofuran-3(2H)-one] returned a melting point of more than 350 °C. The MIC in the data set with B. subtilis ATCC6633 (Bacillus subtilis, ATCC6633) is more than 100 µM. Moreover, the MIC in the data set on S. aureus ATCC6538P (setting [1]) was more than 100 µM. The MIC in the data set with E. coli ATCC8739 (Escherichia coli, ATCC8739) is more than 100 µM. The MIC against P. aeruginosa ATCC9027 (setting [2]) is more than 100 µM. This compound had an MIC in the data set with M. smegmatis ATCC700084 (setting [3]) of more than 100 µM. For the same compound, the MIC against C. albicans DSM10697 (Candida albicans, DSM10697) is more than 100 µM.

`CC(=O)Nc1ccc2c(c1)C(=O)/C(=C/c1cccc(F)c1)O2` [Compound 25, (Z)-N-(2-(3-fluorobenzylidene)-3-oxo-2,3-dihydrobenzofuran-5-yl)acetamide] gave a melting point of 243.6 °C. The compound further gave an MIC in the data set with B. subtilis ATCC6633 (Bacillus subtilis, ATCC6633) of 50 µM (≈ 14.9 µg/mL). Besides, in the data set with S. aureus ATCC6538P (setting [1]), the MIC was more than 100 µM. In the data set on E. coli ATCC8739 (Escherichia coli, ATCC8739), this compound had an MIC of more than 100 µM. Also, in the data set on P. aeruginosa ATCC9027 (setting [2]), the MIC was more than 100 µM. This compound gave an MIC in the data set on M. smegmatis ATCC700084 (setting [3]) of 100 µM (≈ 29.7 µg/mL). Moreover, the MIC against C. albicans DSM10697 (Candida albicans, DSM10697) was more than 100 µM.

With `COc1ccc(/C=C2\Oc3ccc(N)cc3C2=O)cc1` [Compound 9, (Z)-5-amino-2-(4-methoxybenzylidene)benzofuran-3(2H)-one], the MIC with B. subtilis ATCC6633 (Bacillus subtilis, ATCC6633) is more than 100 µM; in the data set with S. aureus ATCC6538P (setting [1]), more than 100 µM; against E. coli ATCC8739 (Escherichia coli, ATCC8739) it was more than 100 µM; against P. aeruginosa ATCC9027 (setting [2]) it was more than 100 µM; against M. smegmatis ATCC700084 (setting [3]), more than 100 µM; in the data set with C. albicans DSM10697 (Candida albicans, DSM10697), more than 100 µM.

`COc1ccccc1/C=C1\Oc2ccc(N)cc2C1=O` [Compound 7, (Z)-5-amino-2-(2-methoxybenzylidene)benzofuran-3(2H)-one] registered a melting point of 189.3 °C. Also, the MIC in the data set on B. subtilis ATCC6633 (Bacillus subtilis, ATCC6633) was more than 100 µM. Moreover, the MIC in the data set with S. aureus ATCC6538P (setting [1]) is more than 100 µM. This compound gave an MIC against E. coli ATCC8739 (Escherichia coli, ATCC8739) of more than 100 µM. In the data set on P. aeruginosa ATCC9027 (setting [2]), this compound gave an MIC of more than 100 µM. In addition, the MIC against M. smegmatis ATCC700084 (setting [3]) is more than 100 µM. Moreover, the MIC with C. albicans DSM10697 (Candida albicans, DSM10697) is more than 100 µM.

For `Nc1ccc2c(c1)C(=O)/C(=C/c1ccccc1F)O2` [Compound 26, (Z)-5-amino-2-(2-fluorobenzylidene)benzofuran-3(2H)-one], the MIC against B. subtilis ATCC6633 (Bacillus subtilis, ATCC6633) is 50 µM (≈ 12.8 µg/mL); with S. aureus ATCC6538P (setting [1]) it was more than 100 µM; against E. coli ATCC8739 (Escherichia coli, ATCC8739), more than 100 µM; in the data set with P. aeruginosa ATCC9027 (setting [2]), more than 100 µM; in the data set on M. smegmatis ATCC700084 (setting [3]) it was more than 100 µM; with C. albicans DSM10697 (Candida albicans, DSM10697), more than 100 µM.

In turn, `CC(=O)Nc1ccc2c(c1)C(=O)/C(=C/c1cccc(C(F)(F)F)c1)O2` [Compound 29, (Z)-N-(3-oxo-2-(3-(trifluoromethyl)benzylidene)-2,3-dihydrobenzofuran-5-yl)acetamide] displayed a melting point of 252.1 °C. This compound also had an MIC against B. subtilis ATCC6633 (Bacillus subtilis, ATCC6633) of more than 100 µM. Further, the MIC with S. aureus ATCC6538P (setting [1]) was more than 100 µM. Besides, in the data set with E. coli ATCC8739 (Escherichia coli, ATCC8739), the MIC was more than 100 µM. This compound also gave an MIC in the data set on P. aeruginosa ATCC9027 (setting [2]) of more than 100 µM. This compound also registered an MIC with M. smegmatis ATCC700084 (setting [3]) of more than 100 µM. In the data set with C. albicans DSM10697 (Candida albicans, DSM10697), this compound gave an MIC of more than 100 µM.

For the compound `CC(=O)Nc1ccc2c(c1)C(=O)/C(=C/c1ccc(C(=O)O)cc1)O2` [Compound 31, (Z)-4-((5-acetamido-3-oxobenzofuran-2(3H)-ylidene)methyl)benzoic acid], the MIC with B. subtilis ATCC6633 (Bacillus subtilis, ATCC6633) is 50 µM (≈ 16.2 µg/mL); with S. aureus ATCC6538P (setting [1]), 100 µM (≈ 32.3 µg/mL); against E. coli ATCC8739 (Escherichia coli, ATCC8739), more than 100 µM; in the data set on P. aeruginosa ATCC9027 (setting [2]) it was more than 100 µM; in the data set on M. smegmatis ATCC700084 (setting [3]), 100 µM (≈ 32.3 µg/mL); against C. albicans DSM10697 (Candida albicans, DSM10697) it was more than 100 µM.

`C[C@@H]1[C@H](O)[C@@H](C)/C=C/C=C/C=C/C=C/C=C/C=C/C=C/[C@H](O[C@@H]2O[C@H](C)[C@@H](O)[C@H](N)[C@@H]2O)C[C@@H]2O[C@](O)(C[C@@H](O)C[C@@H](O)[C@H](O)CC[C@@H](O)C[C@@H](O)CC(=O)O[C@H]1C)C[C@H](O)[C@H]2C(=O)O` [Amphotericin B, reference compound] displayed an MIC in the data set with C. albicans DSM10697 (Candida albicans, DSM10697) of 0.62 µM (≈ 0.573 µg/mL). This counts as sub-micromolar.

Take `COc1ccccc1C=C1Oc2ccc(NC(C)=O)cc2C1=O` [Compound 4]: the MIC with B. subtilis ATCC6633 is recorded as 50 µM (≈ 15.5 µg/mL); against S. aureus ATCC6538P, 100 µM (≈ 30.9 µg/mL); against E. coli ATCC8739, more than 100 µM; with P. aeruginosa ATCC9027, more than 100 µM; in the data set on M. smegmatis ATCC700084 (REMA microdilution), more than 100 µM; against C. albicans DSM10697, more than 100 µM.

Take `CC(=O)Nc1ccc2c(c1)C(=O)/C(=C/c1cccc(O)c1)O2` [Compound 32, (Z)-N-(2-(3-hydroxybenzylidene)-3-oxo-2,3-dihydrobenzofuran-5-yl)acetamide]: the MIC in the data set with B. subtilis ATCC6633, in the data set on S. aureus ATCC6538P, with E. coli ATCC8739, against P. aeruginosa ATCC9027, against M. smegmatis ATCC700084 (REMA microdilution) and with C. albicans DSM10697 was more than 100 µM each time.

For the compound `COc1cccc(/C=C2\Oc3ccc(N)cc3C2=O)c1` [Compound 8, (Z)-5-amino-2-(3-methoxybenzylidene)benzofuran-3(2H)-one], the MIC in the data set with B. subtilis ATCC6633 (Bacillus subtilis, ATCC6633) is more than 100 µM; in the data set on S. aureus ATCC6538P (setting [1]), more than 100 µM; against E. coli ATCC8739 (Escherichia coli, ATCC8739), more than 100 µM; with P. aeruginosa ATCC9027 (setting [2]), more than 100 µM; in the data set with M. smegmatis ATCC700084 (setting [3]) it was more than 100 µM; against C. albicans DSM10697 (Candida albicans, DSM10697), more than 100 µM.

As to `Nc1ccc2c(c1)C(=O)/C(=C/c1cccc(F)c1)O2` [Compound 27, (Z)-5-amino-2-(3-fluorobenzylidene)benzofuran-3(2H)-one], the MIC is more than 100 µM with B. subtilis ATCC6633 (Bacillus subtilis, ATCC6633); more than 100 µM against S. aureus ATCC6538P (setting [1]); more than 100 µM with E. coli ATCC8739 (Escherichia coli, ATCC8739); more than 100 µM with P. aeruginosa ATCC9027 (setting [2]); more than 100 µM with M. smegmatis ATCC700084 (setting [3]); more than 100 µM in the data set on C. albicans DSM10697 (Candida albicans, DSM10697).

On to `CO/N=C1\CN(c2nc3c(cc2F)c(=O)c(C(=O)O)cn3C2CC2)CC1CN` (stereo not shown) [Gemifloxacin, reference compound], for which the MIC with B. subtilis ATCC6633 (Bacillus subtilis, ATCC6633) is 0.03 µM (≈ 0.0117 µg/mL); against S. aureus ATCC6538P (setting [1]) it was 0.06 µM (≈ 0.0234 µg/mL); in the data set with E. coli ATCC8739 (Escherichia coli, ATCC8739) it was 0.06 µM (≈ 0.0234 µg/mL); against P. aeruginosa ATCC9027 (setting [2]), 0.25 µM (≈ 0.0973 µg/mL); against M. smegmatis ATCC700084 (setting [3]), 2 µM (≈ 0.779 µg/mL).

For the compound `Nc1ccc2c(c1)C(=O)/C(=C/c1cccc(O)c1)O2` [Compound 33, (Z)-5-amino-2-(3-hydroxybenzylidene)benzofuran-3(2H)-one], the MIC in the data set on B. subtilis ATCC6633, in the data set on S. aureus ATCC6538P, against E. coli ATCC8739, in the data set with P. aeruginosa ATCC9027, against M. smegmatis ATCC700084 (REMA microdilution) and against C. albicans DSM10697 was more than 100 µM in each case.
